Measurements from patent US20210070748A1, “INHIBITORS OF BRUTONS TYROSINE KINASE” (Pharmacyclics LLC, priority 2015, published 2021).
pIC50: −log10 of the molar value.

Key:
[1] = target: T1, JAK3 (Homo sapiens, UniProt P52333); experiment: Inhibition of a panel of kinases, in vitro HotSpot kinase assay: JAK3; format: biochemical; settings: D-compounds panel data; 1 μM ATP; read-out: IC50 JAK3
T1 sequence (P52333 1-1124): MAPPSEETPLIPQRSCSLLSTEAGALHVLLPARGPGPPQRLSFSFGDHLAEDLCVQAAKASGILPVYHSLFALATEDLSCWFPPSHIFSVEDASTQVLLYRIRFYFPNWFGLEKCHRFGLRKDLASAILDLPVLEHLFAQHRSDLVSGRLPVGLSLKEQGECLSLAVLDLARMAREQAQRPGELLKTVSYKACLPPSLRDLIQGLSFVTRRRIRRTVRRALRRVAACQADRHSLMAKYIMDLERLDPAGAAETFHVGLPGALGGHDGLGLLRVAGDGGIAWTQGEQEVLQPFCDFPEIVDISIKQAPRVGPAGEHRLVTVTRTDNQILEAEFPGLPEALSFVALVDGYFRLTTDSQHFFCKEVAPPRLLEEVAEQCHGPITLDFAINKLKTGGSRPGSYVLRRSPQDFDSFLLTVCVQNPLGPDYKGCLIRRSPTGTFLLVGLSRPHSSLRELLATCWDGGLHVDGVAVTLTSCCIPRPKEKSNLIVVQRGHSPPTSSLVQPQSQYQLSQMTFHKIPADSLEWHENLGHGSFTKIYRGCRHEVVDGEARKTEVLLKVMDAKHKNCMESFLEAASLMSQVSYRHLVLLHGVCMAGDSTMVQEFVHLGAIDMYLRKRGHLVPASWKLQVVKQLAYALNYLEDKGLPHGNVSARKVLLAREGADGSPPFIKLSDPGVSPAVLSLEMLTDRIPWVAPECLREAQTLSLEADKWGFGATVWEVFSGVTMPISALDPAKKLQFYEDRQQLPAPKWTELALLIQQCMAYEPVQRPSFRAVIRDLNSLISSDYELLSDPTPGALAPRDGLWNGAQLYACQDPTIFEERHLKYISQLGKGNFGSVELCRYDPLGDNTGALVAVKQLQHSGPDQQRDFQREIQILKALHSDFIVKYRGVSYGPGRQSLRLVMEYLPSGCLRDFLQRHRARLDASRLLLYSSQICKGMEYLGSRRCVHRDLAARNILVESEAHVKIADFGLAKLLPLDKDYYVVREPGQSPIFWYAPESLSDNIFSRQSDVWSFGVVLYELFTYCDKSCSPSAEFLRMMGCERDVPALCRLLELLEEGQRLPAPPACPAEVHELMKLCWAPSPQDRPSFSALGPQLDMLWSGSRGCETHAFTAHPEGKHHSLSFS

[2] = target: T2, ITK (Homo sapiens, UniProt Q08881); experiment: Inhibition of a panel of kinases, in vitro HotSpot kinase assay: ITK; format: biochemical; settings: D-compounds panel data; 1 μM ATP
T2 sequence (Q08881 1-620): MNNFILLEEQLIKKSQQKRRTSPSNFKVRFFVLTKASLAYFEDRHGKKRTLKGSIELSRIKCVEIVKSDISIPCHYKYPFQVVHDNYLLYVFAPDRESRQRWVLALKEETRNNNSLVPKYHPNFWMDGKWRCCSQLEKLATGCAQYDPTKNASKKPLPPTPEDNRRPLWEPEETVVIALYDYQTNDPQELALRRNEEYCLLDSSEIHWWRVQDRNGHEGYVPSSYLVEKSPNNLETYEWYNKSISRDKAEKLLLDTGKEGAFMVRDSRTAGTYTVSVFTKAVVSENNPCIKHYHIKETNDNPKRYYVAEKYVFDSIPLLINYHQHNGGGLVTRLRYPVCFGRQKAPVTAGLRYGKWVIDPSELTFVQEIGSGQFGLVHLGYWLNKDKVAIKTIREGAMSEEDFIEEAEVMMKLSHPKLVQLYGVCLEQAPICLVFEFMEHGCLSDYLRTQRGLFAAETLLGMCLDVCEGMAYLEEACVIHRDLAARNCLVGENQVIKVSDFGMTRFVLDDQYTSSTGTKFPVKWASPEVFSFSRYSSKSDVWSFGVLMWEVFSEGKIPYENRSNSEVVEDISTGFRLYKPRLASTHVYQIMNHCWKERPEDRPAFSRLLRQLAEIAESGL
Procedure: The degree of inhibition of a panel of kinases is determined using the in vitro HotSpot kinase assay (purified enzymes, ^33P-ATP, an appropriate substrate and 1 μM ATP).

SMILES | pIC50 [1] | pIC50 [2]
Cn1cc(Nc2nc(N3CC[C@@H](O)[C@H](NC(=O)c4ccc(C5CC5)cc4)C3)cnc2C(N)=O)cn1 (racemic) [Example D-26, (racemic)-trans-5-[3-(4-cyclopropylbenzamido)-4-hydroxypiperidin-1-yl]-3-[(1-methyl-1H-pyrazol-4-yl)amino]pyrazine-2-carboxamide] | < 5.00 | 5.00 to 6.00
Cn1cc(Nc2nc(N3C[C@H](CO)C[C@H](NC(=O)c4ccc(C5CC5)cc4)C3)cnc2C(N)=O)cn1 (racemic) [Example D-43, (racemic)-cis-5-[3-(4-cyclopropylbenzamido)-5-(hydroxymethyl)piperidin-1-yl]-3-[(1-methyl-1H-pyrazol-4-yl)amino]pyrazine-2-carboxamide] | 6.00 to 7.00 | 6.00 to 7.00
CN(C)C(=O)N1CC[C@@H]2[C@H]1CCCN2c1cnc(C(N)=O)c(Nc2cnn(C)c2)n1 (racemic) [Example D-50, (racemic)-cis-5-[1-(dimethylcarbamoyl)-octahydro-1H-pyrrolo[3,2-b]pyridin-4-yl]-3-[(1-methyl-1H-pyrazol-4-yl)amino]pyrazine-2-carboxamide] | 5.00 to 6.00 | 5.00 to 6.00
Cn1cc(Nc2nc(N3CCC[C@@H]4[C@H]3CCN4C(=O)c3ccccc3)cnc2C(N)=O)cn1 (racemic) [Example D-54, (racemic)-cis-5-{1-benzoyl-octahydro-1H-pyrrolo[3,2-b]pyridin-4-yl}-3-[(1-methyl-1H-pyrazol-4-yl)amino]pyrazine-2-carboxamide] | 5.00 to 6.00 | 5.00 to 6.00
CN(C)C(=O)N[C@H]1CCCN(c2cnc(C(N)=O)c(Nc3ccc4ncccc4c3)n2)[C@@H]1CO (racemic) [Example D-64, trans 5-[3-[(dimethylcarbamoyl)amino]-2-(hydroxymethyl)piperidin-1-yl]-3-[(quinolin-6-yl)amino]pyrazine-2-carboxamide] | < 5.00 | < 5.00
CN(C)C(=O)N[C@H]1CCCN(c2cnc(C(N)=O)c(Nc3ccc4ncccc4c3)n2)[C@H]1CO (racemic) [Example D-65, cis 5-[3-[(dimethylcarbamoyl)amino]-2-(hydroxymethyl)piperidin-1-yl]-3-[(quinolin-6-yl)amino]pyrazine-2-carboxamide] | < 5.00 | < 5.00
Cn1cc(Nc2nc(N3CCC(NC(=O)c4ccc(C5CC5)cc4)C(O)C3)cnc2C(N)=O)cn1 (single isomer, unassigned) [Example D-28, Trans-5-[4-(4-cyclopropylbenzamido)-3-hydroxypiperidin-1-yl]-3-[(1-methyl-1H-pyrazol-4-yl)amino]pyrazine-2-carboxamide] | < 5.00 | 5.00 to 6.00
Cn1cc(Nc2nc(N3CCC(NC(=O)c4ccc(C5CC5)cc4)C(O)C3)cnc2C(N)=O)cn1 (single isomer, unassigned) [Example D-29, Trans-5-[4-(4-cyclopropylbenzamido)-3-hydroxypiperidin-1-yl]-3-[(1-methyl-1H-pyrazol-4-yl)amino]pyrazine-2-carboxamide] | < 5.00 | 5.00 to 6.00
C[C@@H]1[C@H](NC(=O)c2ccc(C3CC3)cc2F)CCCN1c1cnc(C(N)=O)c(Nc2cnn(C)c2)n1 [Example D-1, 5-[(2R,3R)-3-(4-cyclopropyl-2-fluorobenzamido)-2-methylpiperidin-1-yl]-3-[(1-methyl-1H-pyrazol-4-yl)amino]pyrazine-2-carboxamide] | 5.00 to 6.00 | 6.00 to 7.00
Cc1cc(Nc2nc(N3CCC[C@@H](NC(=O)c4ccc(C5CC5)cc4F)C3)cnc2C(N)=O)on1 [Example D-2, 5-[(3R)-3-(4-cyclopropyl-2-fluorobenzamido)piperidin-1-yl]-3-[(3-methyl-1,2-oxazol-5-yl)amino]pyrazine-2-carboxamide] | 5.00 to 6.00 | < 5.00
NC(=O)c1ncc(N2CCC[C@@H](NC(=O)c3ccc(C4CC4)cc3F)C2)nc1Nc1cc(-c2ccccc2)ns1 [Example D-3, 5-[(3R)-3-(4-cyclopropyl-2-fluorobenzamido)piperidin-1-yl]-3-[(3-phenyl-1,2-thiazol-5-yl)amino]pyrazine-2-carboxamide] | < 5.00 | < 5.00
Cc1ncc(Nc2nc(N3CCC[C@@H](NC(=O)c4ccc(C5CC5)cc4F)C3)cnc2C(N)=O)s1 [Example D-4, 5-[(3R)-3-(4-cyclopropyl-2-fluorobenzamido)piperidin-1-yl]-3-[(2-methyl-1,3-thiazol-5-yl)amino]pyrazine-2-carboxamide] | 5.00 to 6.00 | 5.00 to 6.00
C[C@@H]1[C@H](N2Cc3cc(Br)ccc3C2=O)CCCN1c1cnc(C(N)=O)c(Nc2cnn(C)c2)n1 [Example D-27, 5-[(2R,3R)-3-(5-bromo-1-oxo-2,3-dihydro-1H-isoindol-2-yl)-2-methylpiperidin-1-yl]-3-[(1-methyl-1H-pyrazol-4-yl)amino]pyrazine-2-carboxamide] | 6.00 to 7.00 | 6.00 to 7.00
C[C@H]1C[C@@H](NC(=O)c2ccc(C3CC3)cc2)CN(c2cnc(C(N)=O)c(Nc3cnn(C)c3)n2)C1 [Example D-30, 5-[(3R,5S)-3-(4-cyclopropylbenzamido)-5-methylpiperidin-1-yl]-3-[(1-methyl-1H-pyrazol-4-yl)amino]pyrazine-2-carboxamide] | < 5.00 | 5.00 to 6.00
C[C@@H]1C[C@@H](NC(=O)c2ccc(C3CC3)cc2)CN(c2cnc(C(N)=O)c(Nc3cnn(C)c3)n2)C1 [Example D-31, 5-[(3R,5R)-3-(4-cyclopropylbenzamido)-5-methylpiperidin-1-yl]-3-[(1-methyl-1H-pyrazol-4-yl)amino]pyrazine-2-carboxamide] | 5.00 to 6.00 | 5.00 to 6.00
C[C@@H]1C[C@H](NC(=O)c2ccc(C3CC3)cc2)CN(c2cnc(C(N)=O)c(Nc3cnn(C)c3)n2)C1 [Example D-32, 5-[(3S,5R)-3-(4-cyclopropylbenzamido)-5-methylpiperidin-1-yl]-3-[(1-methyl-1H-pyrazol-4-yl)amino]pyrazine-2-carboxamide] | < 5.00 | < 5.00
C[C@@H]1[C@H](NC(=O)N(C)C)CCCN1c1cnc(C(N)=O)c(Nc2ccc(OC3CCN(C)CC3)cc2)n1 [Example D-33, 5-[(2R,3R)-3-[(dimethylcarbamoyl)amino]-2-methylpiperidin-1-yl]-3-({4-[(1-methylpiperidin-4-yl)oxy]phenyl}amino)pyrazine-2-carboxamide] | 5.00 to 6.00 | 7.00 to 8.00
C[C@H]1C[C@H](NC(=O)c2ccc(C3CC3)cc2)CN(c2cnc(C(N)=O)c(Nc3cnn(C)c3)n2)C1 [Example D-34, 5-[(3S,5S)-3-(4-cyclopropylbenzamido)-5-methylpiperidin-1-yl]-3-[(1-methyl-1H-pyrazol-4-yl)amino]pyrazine-2-carboxamide] | < 5.00 | < 5.00
CC(C)n1ccc(C(=O)N[C@@H]2CCCN(c3cnc(C(N)=O)c(Nc4cnn(C)c4)n3)[C@@H]2C)cc1=O [Example D-35, 3-[(1-methyl-1H-pyrazol-4-yl)amino]-5-[(2R,3R)-2-methyl-3-[2-oxo-1-(propan-2-yl)-1,2-dihydropyridine-4-amido]piperidin-1-yl]pyrazine-2-carboxamide] | 6.00 to 7.00 | 5.00 to 6.00
